# Read-outs that look alike come from different tables or passages of the source. Positions of bridges follow the written chain, without caps; N, C: chain ends. Non-standard residues stand in square brackets, D forms with d. Residues, ends and D or L forms follow the SMILES beside them. No end group written: not given here. S5 = C=CCCC[C@](C)(N)C(=O)O; Nle = CCCC[C@H](N)C(=O)O
# Legend:
# FIGURE 16F = assay: FIGURE 16F
# Excerpt: Table printed on a drawing sheet, FIGURE 16F
# FIGURE 16C = assay: FIGURE 16C
# Excerpt: Table printed on a drawing sheet, FIGURE 16C
# First reader's note: The sheet prints two blocks (626-662 and 638-673 series) under one head; per the description the half-lives are in the presence of chymotrypsin at pH 7.
# syncytia formation = assay: HIV syncytial formation assay; format: cell-based, HIV-1
# Protocol: Functional assays can also be used to evaluate the modified polypeptides activity. In culture, multinucleated giant cells or “syncytia” form as a result of direct cell-cell fusion between HIV-1-infected and uninfected CD4-positive cells. In the syncytia formation assay, an indicator cell line expressing the CD4 receptor, and a fusogenic cell line that lacks the CD4 receptor but contains HIV-1 proteins on the surface, fuse to generate 70-100 multinucleated giant cells in culture within 48 h. Syncytia are then counted using an inverted microscope. The ability of stabilized alpha helix of gp41 (SAH-gp41) compounds to inhibit syncytia formation in a dose-responsive fashion is used as a functional measure of fusion inhibition, for which IC50s can be determined and compared with peptides T20 and T649 (Brenner, T. J., et al. The Lancet, 1991. 337(8748): p. 1001-1005; Madani, N., et al., Journal of Virology, 2007. 81(2): p. 532-538).
# The compounds of the invention were assayed for inhibition of syncytial formation using methods well known to those skilled in the art. Equal amounts of either T20/gp41(638-673) or SAH-gp41(626-645)A were added to the media.
# [1] = Circular dichroism, calculated α-helical content; format: physicochemical; conditions: for α-helical content: comparative CD spectra, 20-mer residues 626-645
# Protocol: The α-helicity of stapled modified polypeptides can be compared to their unmodified counterparts by circular dichroism. CD spectra can be obtained on a Jasco J-710 or Aviv spectropolarimeter at 20° C. using the following standard measurement parameters: wavelength, 190-260 nm; step resolution, 0.5 nm; speed, […]; accumulations, 10; response, 1 sec; bandwidth, 1 nm; path length, 0.1 cm. The α-helical content of each peptide is calculated by dividing the mean residue ellipticity [Θ]222obs by the reported [Θ]222obs for a model helical peptide (Forood, B., E. J. Feliciano, and K. P. Nambiar, PNAS, 1993. 90(3): p. 838-842; J. Martin Scholtz, Biopolymers, 1991. 31(13): p. 1463-1470; Lawless, M. K., et al., Biochemistry, 1996. 35(42): p. 13697-13708) or using, for example, the Aviv machine using CDNN software developed by Brohm in order to deduce five different secondary structure fractions (helix, parallel and antiparallel beta-sheet, beta-turn and random coil). Protein Engineering, 1992. 5(3); p. 191-195
# To optimize the activity of tSAH-gp41 peptides, an alternative strategy based upon inserting one or more hydrocarbon staples into the full-length gp41-HR-2 constructs was pursued (FIG. 11, 12).
# pepsin = assay: Protease exposure under acidic conditions: pepsin, pH 2; conditions: pepsin solution (protease exposure under acidic conditions)
# HIV-1 HXBc2 = assay: Luciferase-based HIV infectivity assay, HXBc2; format: cell-based; conditions: compared to T20
# Protocol: Recombinant HIV-1 bearing the envelope glycoproteins from three distinct HIV-1 strains, HXBc2, ADA, and HXBc2P 3.2, and a negative control virus bearing the amphotropic murine leukemia virus (A-MLV) envelope glycoproteins, were evaluated.
compound,measurement,setting,value
"SAH-gp41(626-662)(A,F): doubly stapled gp41(626-662) HIV-1 fusion inhibitor peptide (LTWAEWDAEINNYTSLIHSLIEESQNQAEKNAQELLE; not fully specified (bridges); also: doubly stapled, places not given here)",half-life,FIGURE 16F,34 h
same,half-life,FIGURE 16C,5.02 h
gp41(626-645): unstapled 20-mer truncation of T649v consisting of residues 626-645 ([Nle]TW[Nle]EWDREINNYTSLIHSL) [reference compound],inhibition of syncytia formation (words),syncytia formation,only modest anti-syncytial activity
same,α-helical content,[1],20%
enfuvirtide,calculated α-helical content,[1]; CD spectra at physiologic pH,~25%
same,half-life at 25 μM,pepsin,4 min
CCCC[C@H](NC(C)=O)C(=O)N[C@H](C(=O)N[C@@H](Cc1c[nH]c2ccccc12)C(=O)N[C@@]1(C)CCCC=CCCC[C@@](C)(C(=O)N[C@@H](CCC(=O)O)C(=O)N[C@H](C(=O)N[C@@H](CC(N)=O)C(=O)N[C@@H](CC(N)=O)C(=O)N[C@@H](Cc2ccc(O)cc2)C(=O)N[C@H](C(=O)N[C@@H](CO)C(=O)N[C@@H](CC(C)C)C(=O)N[C@H](C(=O)N[C@@H](Cc2c[nH]cn2)C(=O)N[C@@H](CO)C(=O)N[C@@H](CC(C)C)C(N)=O)[C@@H](C)CC)[C@@H](C)O)[C@@H](C)CC)NC(=O)[C@H](CC(=O)O)NC(=O)[C@H](Cc2c[nH]c3ccccc23)NC(=O)[C@H](CCC(=O)O)NC1=O)[C@@H](C)O [SAH-gp41(626-645)(A)] (Ac-[Nle]TW[S5]EWD[S5]EINNYTSLIHSL-NH2; staple 4-8; N-terminus and C-terminus assumed),inhibition of syncytia formation (words),syncytia formation,markedly enhanced inhibitory activity
same,inhibition of syncytia formation (words),syncytia formation; listed as SAH-gp41(626-645)A,inhibited syncytial formation more so than unmodified control polypeptides
same,α-helical content,[1],48%
same,anti-HXBc2 activity,HIV-1 HXBc2,significant anti-HXBc2 activity

# From patent publication US10259848B2, “Compositions and methods comprising hydrocarbon-stapled polypeptides” (Dana-Farber Cancer Institute, Inc., priority 2008, dated 2019)
